Read-outs that look alike come from different tables or passages of the source. Blank lines part the entries; values can stand above or below the molecule they belong to. Numbered stars: 1 amine (or outer) side, 2 acyl side, 3 side chain; on linkers, the order of the positions; unused ones are H or OH. Bridge positions count the residues as written; N and C are the ends. Square brackets hold non-standard residues; d marks the D form. Ends that are not written are not given here. Peptide text beside a SMILES is read from it. I, II: the chains in the order shown. CO(CH2CH2O)13CH2CH2CO = O=C(CCOCCOCCOCCOCCOCCOCCOCCOCCOCCOCCOCCOCCOCCC(=O)[*:2])[*:1]; CO(CH2CH2O)9CH2CH2CO = O=C(CCOCCOCCOCCOCCOCCOCCOCCOCCOCCC(=O)[*:2])[*:1]; NMeE = CN[C@@H](CCC(=O)O)C(=O)O
How the values were obtained:
[1] = Human blood plasma stability assay; format: in vitro ADME
Method: In this assay, the half-life (T1/2) of a compound in blood plasma is measured in vitro, whereby its susceptibility to degradation by proteases, peptidases and general plasma contents is quantified.
Compounds of interest were dissolved in human blood plasma (270 μl; 3H Biomedical, Sweden, cat no 1300-1-P50) to a concentration of 0.25 mM (30 μL of 2.5 mM) and incubated at 37° C. Aliquots (30 μl) were removed at various time intervals (0, 5, 10, 20, 40, 80, 160, 320, 960, 1280, 2550, 4560 and 7240 min) and quenched with 60 μL trichloroacetic acid (aq., 5%). The aliquots were vortexed, and incubated for at least 15 min, at 4° C. prior to centrifugation at 18,000 g for 2 min and the supernatant was analyzed by RP-HPLC to quantify the remaining compound (absorbance at 218 nm).

PDZ1 of PSD-95 = biological target: T1, PDZ1 of PSD-95 (Homo sapiens, UniProt P78352); test: FP heterologous competition binding assay; conditions: for Ki: FP competition, mean ± SEM, NA = no activity/affinity
T1 construct: PSD-95 PDZ1 (residues 61-151); made in house; host or cells: E. coli BL21-DE3 pLysS
Excerpt: (§1) Determined IC50 values may be converted to Ki values.^5 Suitable fluorophores include either 5-FAM or Cy5, which may be coupled to a tripeptide (KSG or CSG) linker attached to the N-terminus of the undecapeptide, to give 5-FAM-NR2B, Cy5-NR2B, 5-FAM-CRIPT and Cy5-CRIPT. The 5-FAM fluorophore may be attached to the undecapeptides by coupling with HATU. The Cy5 fluorophore may be conjugated to the undecapeptides by coupling Cy5-maleimide to the cysteine side chain of the tripeptide sequence CSG attached to the N-terminus of the peptide, as detailed in the Methodology section.
(§2) To measure the affinities between non-fluorescent peptides and PDZ domains, heterologous competition bindings assay were performed. This was done by adding increasing concentrations of peptide to a fixed concentration of Cy5-NR2B, 5-FAM-NR2B, Cy5-CRIPT or 5-FAM-CRIPT (50 nM) and PDZ (20 μM for PDZ1, 3 μM for PDZ2 and 1-2 and 5 μM for PDZ3) in the same TBS buffer and conditions as described above. FP values were then fitted to the general equation: Y=Bottom+(Top−Bottom)/[1[…](10̂^X-logIC50)], where X is the logarithmic value of peptide concentration. Hereby the IC50 value was obtained, which is used to calculate the theoretical competitive inhibition constant, Ki.^5
(§3) A convenient and reliable way to examine interactions between peptide analogues and PDZ domains is by using a fluorescence polarization (FP) assay. The three PDZ domains, PDZ1-3, of PSD-95 were expressed individually as set out above, while PDZ1-2 was also expressed as a tandem construct. […] IC50 values were then converted to Ki values.^5

PDZ2 of PSD-95 = biological target: T2, PDZ2 of PSD-95 (Homo sapiens, UniProt P78352); test: FP heterologous competition binding assay; conditions: for Ki: FP competition, mean ± SEM, NA = no activity/affinity; for affinity to PDZ2, in words: FP assay
T2 construct: PDZ2 (residues 155-249); made in house; host or cells: E. coli BL21-DE3 pLysS
Excerpt: as §1, §2, §3

PDZ1-2 tandem of PSD-95 = biological target: T3, PDZ1-2 tandem of PSD-95 (Homo sapiens, UniProt P78352); test: FP heterologous competition binding assay; conditions: mean ± SEM
T3 construct: PDZ1-2 (residues 61-249) tandem; made in house; host or cells: E. coli BL21-DE3 pLysS
Excerpt: as §1, §2, §3

[2] = human, plasma, Blood plasma half life (T1/2)

- half-life [1, 2]: > 5.56 days
Molecule: CC[C@H](C)[C@H](NC(=O)CCOCCOCCOCCOCCOCCC(=O)N[C@H](C(=O)N[C@@H](C)C(=O)N[C@H](C(=O)N(C)[C@@H](C)C(=O)N[C@H](C(=O)O)C(C)C)[C@@H](C)O)[C@@H](C)CC)C(=O)N[C@@H](C)C(=O)N[C@H](C(=O)N(C)[C@@H](C)C(=O)N[C@H](C(=O)O)C(C)C)[C@@H](C)O [(IATAMeV)2PEG4 (90), (IATAMeV)2PEG4]
- degradation in human blood plasma, in words [1]: no significant degradation could be detected over a time period of 6 days

- half-life at […] [1, 2]: 17 to 55 min
Molecule: CC(C)[C@H](NC(=O)[C@H](CC(=O)O)NC(=O)[C@H](CO)NC(=O)[C@@H](N)CCC(N)=O)C(=O)O [Compound 29] (H-QSDV-OH)

- Ki (PDZ1 of PSD-95): 7 ± 0.28 µM
Molecule: CCCN[C@@H](CCC(=O)O)C(=O)N[C@H](C(=O)N[C@@H](C)C(=O)N[C@H](C(=O)O)C(C)C)[C@@H](C)O [Compound 53, N-Propyl-ETAV]

- Ki (PDZ2 of PSD-95): 3.1 ± 0.31 µM
- Ki (PDZ1 of PSD-95): 2.1 ± 0.35 µM
Molecule: CC(C)[C@H](NC(=O)[C@H](C)NC(=O)[C@@H](NC(=O)[C@H](CCC(=O)O)NCCCc1ccccc1)C(C)O)C(=O)O (stereo partly drawn) [Compound 60, N-Phenylpropyl-ETAV]

Molecule: CC(C)[C@H](NC(=O)[C@H](C)NC(=O)[C@@H](NC(=O)[C@H](CCC(=O)O)NCCc1ccc(Cl)c(Cl)c1)C(C)O)C(=O)O (stereo partly drawn) [Compound 61]
- Ki (PDZ2 of PSD-95): 1.1 ± 0.11 µM

Molecule: CC(C)[C@H](NC(=O)[C@H](C)NC(=O)[C@@H](NC(=O)[C@H](CCC(=O)O)NCCc1ccc(F)c(F)c1)C(C)O)C(=O)O (stereo partly drawn) [Compound 62]
- Ki (PDZ2 of PSD-95): 1 ± 0.043 µM
- Ki (PDZ1 of PSD-95): ~1 µM

- Ki (PDZ2 of PSD-95): 22 ± 0.18 µM
Molecule: CC(C)[C@H](NC(=O)[C@H](CC(=O)O)NC(=O)[C@H](CO)NC(=O)[C@H](CCC(=O)O)NC(=O)CCOCCOCCOCCOCCOCCOCCOCCOCCOCCOCCOCCOCCOCCC(=O)N[C@@H](CCC(=O)O)C(=O)N[C@@H](CO)C(=O)N[C@@H](CC(=O)O)C(=O)N[C@H](C(=O)O)C(C)C)C(=O)O [Compound 84] (I: ESDV-OH / II: ESDV-OH; linker I:N-II:N via CO(CH2CH2O)13CH2CH2CO; C-terminus assumed)

- Ki (PDZ1-2 tandem of PSD-95): 1 ± 0.05 µM
Molecule: CC(C)[C@H](NC(=O)[C@H](CC(=O)O)NC(=O)[C@H](CO)NC(=O)[C@H](CCC(=O)O)NC(=O)CCOCCOCCOCCOCCOCCOCCOCCOCCOCCC(=O)N[C@@H](CCC(=O)O)C(=O)N[C@@H](CO)C(=O)N[C@@H](CC(=O)O)C(=O)N[C@H](C(=O)O)C(C)C)C(=O)O [Compound 85] (I: ESDV-OH / II: ESDV-OH; linker I:N-II:N via CO(CH2CH2O)9CH2CH2CO; C-terminus assumed)

- half-life at […] [1, 2]: 32 min
Molecule: CC[C@H](C)[C@H](N)C(=O)N[C@@H](C)C(=O)N[C@H](C(=O)N(C)[C@@H](C)C(=O)N[C@H](C(=O)O)C(C)C)[C@@H](C)O [IATAMeV (89), IATAMeV]

- Ki (PDZ1 of PSD-95): 21 ± 1.1 µM
Molecule: CC(C)[C@H](NC(=O)[C@H](C)NC(=O)[C@@H](NC(=O)[C@H](CCC(N)=O)NCCC1CCCCC1)[C@@H](C)O)C(=O)O [QTAV (72)]

- fold increase in Ki (loss of affinity) compared to NR2B peptide (1), PDZ2 (PDZ2 of PSD-95): ~9 fold
- Ki (PDZ2 of PSD-95): 37 µM
- fold increase in Ki (loss of affinity) compared to NR2B peptide (1), PDZ1 (PDZ1 of PSD-95): ca. 2 fold
- Ki (PDZ1 of PSD-95): 42 µM
Molecule: CC(C)[C@H](NC(=O)[C@H](C)NC(=O)[C@@H](N)[C@@H](C)O)C(=O)O [TAV (49), TAV] (H-Thr-Ala-Val-OH; N-terminus and C-terminus assumed)

- affinity to PDZ2, in words (PDZ2 of PSD-95): only slightly less potent
- fold increase in affinity (more potent) compared to NR2B peptide (1), PDZ1 (PDZ1 of PSD-95): ca. 3 fold
Molecule: EMeTDV ([NMeE]TDV) [Compound 36]

- affinity to PDZ2, in words (PDZ2 of PSD-95): only slightly less potent
- fold increase in affinity (more potent) compared to NR2B peptide (1), PDZ1 (PDZ1 of PSD-95): ca. 3 fold
Molecule: EMeTQV ([NMeE]TQV) [Compound 39]

- fold increase in half life compared to non-pegylated peptide 7 ([1]; human): about 10 fold
- Blood plasma half life (T1/2) ([1]; human, plasma): 602 min
Molecule: IESDV-PEG4 [IESDV-PEG4 (91)]

- fold increase in Ki (loss of affinity) compared to NR2B peptide (1), PDZ2 (PDZ2 of PSD-95): > 30 fold
- fold increase in Ki (loss of affinity) compared to NR2B peptide (1), PDZ1 (PDZ1 of PSD-95): > 20 fold
Molecule: SDV

Molecule: YGRKKRRQRRRKLSSIESDV [Tat-NR2B (3), reference compound] [listing 1 of 2 here]
- half-life at […] ([1]; human blood plasma, 37° C., 0.25 mM, read-out: Blood plasma half life (T1/2)): 1470 min

Molecule: YGRKKRRQRRRKLSSIESDV [Tat-NR2B (3), reference compound] [listing 2 of 2 here]
- Ki (PDZ1-2 tandem of PSD-95): 9.8 ± 0.35 µM
